The subject of series [1] is LNCaP cells. The class given is cell-based. Set-up: cell death: dose or concentration left out as unconfirmed. The procedure:
FIG. 12B: LNCaP cells were grown without androgen for 2 or 4 days in the presence of increasing concentration of Peptide A-8R [SEQ ID NO: 1] (upper left), Peptide B-8R [SEQ ID NO: 2] (upper right), Peptide C-8R [SEQ ID NO: 3] (lower left), or Peptide D-8R [SEQ ID NO: 4] (lower right). The MTT reagent was used to measure cell density.
FIG. 13A: LNCaP cells were grown with (Right) or without (Left) 1 nM androgen ([…]) for 3 or 6 days in the presence of increasing concentration of Peptide A-8R [SEQ ID NO: 1] or vehicle (70% DMSO). The MTT reagent was used to measure cell density.
FIG. 13B: LNCaP cells were grown with (Right) or without (Left) 1 nM androgen (R1881) for 3 or 6 days in the presence of increasing concentration of Peptide C-8R [SEQ ID NO: 3] or vehicle and then cell density was measured.
FIG. 14A: LNCaP cells were grown with (Right) or without (Left) 1 nM R1881 for 3 or 6 days in the presence of increasing concentration of Peptide A or vehicle and then cell density was measured.
FIG. 14B: LNCaP cells were grown with (Right) or without (Left) 1 nM R1881 for 3 or 6 days in the presence of increasing concentration of Peptide A-8R [SEQ ID NO: 1] or vehicle and then cell density was measured.
FIG. 15A: LNCaP cells were grown for 1-8 hrs in the presence of 10 μM Peptide A-8R [SEQ ID NO: 1] or vehicle and then cell density was measured.
FIG. 19C: LNCaP cells were grown with for 12 or 48 hrs in the presence of increasing concentration of Peptide A-8R [SEQ ID NO: 1] (Left) or PeptideA-8R-Biotin [SEQ ID NO: 1] (Right) and then cell density was measured.
Each peptide contained 8 arginines at the C-terminus, a sequence which is known to mediate plasma membrane translocation and cellular internalization.
To measure how rapid the cytotoxic effect of Peptide A-8R [SEQ ID NO: 1] occurs, LNCaP cells were treated with 10 μM peptide and incubated for 1-8 hrs. […] Using the same conditions, C81 cells were used to study the peptide effect on hormone-refractory prostate cancer cells.

The subject of series [2] is ACHN human kidney cancer cells. The experiment in a line: ACHN cell density with peptide. The format is cell-based. The note with it: even at 100 μM; 2 or 4 days; no endogenous sGCα1. The procedure: FIG. 17C: ACHN human kidney cancer cells were grown for 2 or 4 days in the presence of increasing concentration of Peptide A-8R [SEQ ID NO: 1] or vehicle and then cell density was measured.

The test system of series [3] is Caspase 3/7. The experiment in a line: Caspase 3/7 activity in LNCaP cells. The class given is cell-based. The note with it: 10 mM Peptide A-8R. The procedure: FIG. 18A: LNCaP cells were grown for 1-24 hrs in the presence of vehicle, […] Peptide A-8R [SEQ ID NO: 1], or […] Etoposide and then measured for Caspase 3/7 activity.
To determine if the cytotoxicity of Peptide A-8R [SEQ ID NO: 1] is through apoptosis, LNCaP cells were monitored for Caspase 3/7 activity. […] Thus, Peptide A-8R [SEQ ID NO: 1] was able to induce Caspase 3/7 activity much faster than the well-studied apoptosis-inducing drug Etoposide. To confirm that the Peptide was killing cells via apoptosis, the inventors used the pan-caspase inhibitor Z-VAD-FMK.

Series [4] relates to LNCaP xenograft tumors. The experiment in a line: LNCaP xenograft tumors in nude mice, intratumoral injection. The format is in vivo. The method, then:
FIG. 20: Peptide A-8R [SEQ ID NO: 1] inhibits the growth of LNCaP prostate xenograft tumors. LNCaP xenograft tumors were grown in nude mice to a size of 200-400 cubic mm and then treated with daily intratumoral injections of either Peptide A-8R [SEQ ID NO: 1] (80 mg/kg of animal) or Vehicle (DMSO) for seven days, after which the tumors were left untreated and allowed to grow for an additional 2-3 weeks. Each point represents the average tumor size of three animals plus/minus the standard deviations. Note that open squares or circles represent no treatment of either Peptide A-8R [SEQ ID NO: 1] or vehicle.
This was analyzed using LNCaP xenograft tumors established in nude mice and direct injection of Peptide A-8R [SEQ ID NO: 1] (FIG. 20).

For series [5], the system named is C81 xenograft tumors. The experiment in a line: C81 xenograft tumors in mice, intratumoral injection. The format is in vivo. The method, then:
FIGS. 28A-C: Peptide A-8R [SEQ ID NO: 1] inhibits the growth of C81 prostate xenograft tumors. (A) C81 (hormone-independent LNCaP) xenograft tumors were grown in nude mice to a size of about 200 cubic mm and then treated every other day with five intratumoral injections of either Peptide A-8R [SEQ ID NO: 1] ([…] of animal) or vehicle (DMSO) for seven days, after which the tumors were left untreated and allowed to grow for an additional 3 weeks before the tumors were excised. Each point represents the average tumor size of three animals plus or minus the standard deviations. The arrow represents the last treatment of Peptide A-8R [SEQ ID NO: 1] or vehicle. There is a statistical significance (P<0.0004) of Peptide A activity, relative to vehicle, for each treatment day. […] Bar graphs represent averages of each set of three tumors plus standard deviations. Asterisks indicate statistical significance (P<0.02). (C) Image showing the strong anti-tumor effect of Peptide A-8R [SEQ ID NO: 1], as compared to vehicle control, in one animal.
This experiment was then repeated using hormone-refractory C81 cells. 2×10^6 C81 cells in 50 μL of growth medium was mixed with 50 μL Matrigel (BD Biosciences) and injected into both flanks of 4-6-week old SCID male mice. When tumor sizes reached 200 mm^3, 50 μL of Peptide A-8R (40 mg Peptide A-8R/kg of animal) [“A-8R” disclosed as SEQ ID NO: 1] or vehicle (DMSO) was directly injected into the tumors every other day. Injections were stopped after 5 times and tumors were measured every 3 days. Mice were euthanized after 3 weeks and tumors were excised. All procedures were approved by the University of Toledo, Division of Lab Animal Recourses (DLAR). Protein extracts were prepared by boiling the tumor tissue in 3×SDS buffer, and evaluated by SDS-PAGE gel. The procedure was carried out in strict accordance with the recommendations in the Guide for the Care and Use of Laboratory Animals of the National Institutes of Health. […] During the experiments, all animals were monitored daily for morbidity and all efforts were made to minimize suffering. […]

Here are results for one substance from US9546196B2, “Compositions and methods of treatment of cancers” (The University of Toledo, priority 2009, dated 2017).

Entries after “also recorded” stand apart in the source; their conditions may differ.

In the case of “Ac-TFCKAFPFHIIRRRRRRRR-OH [Peptide A-8R]”, the “cell number, time course” value in series [1] (LNCaP, 10 μM peptide, 1-8 hrs) is reported as “steep decline in cell number with one hour”. Besides, the cell death in series [1] (LNCaP, peptide treatment, by day 6) was found to be 100%. In addition, in series [1] (increasing concentration of peptide, days, with or without 1 nM R1881), the “effect on LNCaP cell growth / cytotoxicity (in words)” value was “highly cytotoxic; also recorded: induced LNCaP cell death in both the absence and presence of androgens”. Further, the “effect on ACHN cells” value in series [2] was “little to no effect”. Moreover, the “increase in caspase activity” value was ~4 fold in series [3] (after 8 hrs) and 2 fold in series [3] (by 1 hour). Also, the caspase activity entry in series [3] (after 24 hrs) is reported as “diminished to Vehicle levels”. Further, the “tumor growth during treatment” value was “strongly inhibited tumor growth and actually caused tumor regression” in series [4] (80 mg/kg daily intratumoral, seven daily injections); “stopped tumor growth and actually caused some tumor regression” in series [5] (40 mg/kg intratumoral every other day, five injections). In series [4] (additional 2-3 weeks untreated, versus Vehicle), the “tumor growth after stopping peptide injection” value is recorded as “grew significantly more slowly”. Moreover, in series [5] (one mouse having two tumors), the “tumor size versus vehicle-treated tumor in the same mouse” value was “markedly smaller”. Also, the “tumor growth after peptide treatment was stopped” value in series [5] (three weeks after treatment was stopped) is “did not grow at all”.
